# Reference: publication PMC5540273, “Progress towards a public chemogenomic set for protein kinases and a call for contributions” (PLoS ONE, 2017)
# Target: ERK1 (Homo sapiens, UniProt P27361)
# Assay: KINOMEscan competition binding
# Conditions: read-out: %Inh ERK1
# Chain of ERK1 (P27361 whole entry): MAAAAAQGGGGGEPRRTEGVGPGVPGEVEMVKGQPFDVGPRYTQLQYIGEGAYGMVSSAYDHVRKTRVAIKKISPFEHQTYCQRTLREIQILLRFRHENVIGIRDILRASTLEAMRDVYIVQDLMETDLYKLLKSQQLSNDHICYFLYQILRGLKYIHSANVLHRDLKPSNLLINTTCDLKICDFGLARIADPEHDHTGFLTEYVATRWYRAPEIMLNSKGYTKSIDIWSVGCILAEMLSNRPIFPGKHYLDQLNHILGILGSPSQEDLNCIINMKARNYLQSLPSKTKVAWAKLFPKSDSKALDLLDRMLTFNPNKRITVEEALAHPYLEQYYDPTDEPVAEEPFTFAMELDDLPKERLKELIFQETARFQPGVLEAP
row,Compound,inhibition at 1 µM [%]
1,O=c1cc(N2CCOCC2)nc2n(Cc3cccc(Cl)c3Cl)c(C3CC3)nn12 [UNC10225469A],0
2,Cn1cc(-c2cnc(N)c3c(-c4ccc5c(c4)CCN5C(=O)Cc4ccccc4)csc23)cn1 [UNC10225012A],0
3,CS(=O)(=O)Cc1ccc(Nc2nccc(-c3c(-c4cccc(NC(=O)C5CCCCC5)c4)nn4ncccc34)n2)cc1 [UNC10225159A],2
4,COc1cccc(OC)c1C(=O)Nc1cccc(-c2nn3ccccc3c2-c2ccnc(Nc3cccc(F)c3)n2)c1 [UNC10225310A],1
5,Cc1ccc(NC(=O)Nc2cccc(C(F)(F)F)c2)cc1 [UNC10225187A],0

# Target: HIPK3 (Homo sapiens, UniProt Q9H422)
# Assay: KINOMEscan competition binding
# Conditions: read-out: %Inh HIPK3
row,Compound,inhibition at 1 µM [%]
1,O=c1cc(N2CCOCC2)nc2n(Cc3cccc(Cl)c3Cl)c(C3CC3)nn12 [UNC10225469A],16
2,Cn1cc(-c2cnc(N)c3c(-c4ccc5c(c4)CCN5C(=O)Cc4ccccc4)csc23)cn1 [UNC10225012A],7
3,CS(=O)(=O)Cc1ccc(Nc2nccc(-c3c(-c4cccc(NC(=O)C5CCCCC5)c4)nn4ncccc34)n2)cc1 [UNC10225159A],23
4,COc1cccc(OC)c1C(=O)Nc1cccc(-c2nn3ccccc3c2-c2ccnc(Nc3cccc(F)c3)n2)c1 [UNC10225310A],0
5,Cc1ccc(NC(=O)Nc2cccc(C(F)(F)F)c2)cc1 [UNC10225187A],0

# Target: CSK (Homo sapiens, UniProt P41240)
# Assay: KINOMEscan competition binding
# Conditions: read-out: %Inh CSK
# Chain of CSK (P41240 whole entry): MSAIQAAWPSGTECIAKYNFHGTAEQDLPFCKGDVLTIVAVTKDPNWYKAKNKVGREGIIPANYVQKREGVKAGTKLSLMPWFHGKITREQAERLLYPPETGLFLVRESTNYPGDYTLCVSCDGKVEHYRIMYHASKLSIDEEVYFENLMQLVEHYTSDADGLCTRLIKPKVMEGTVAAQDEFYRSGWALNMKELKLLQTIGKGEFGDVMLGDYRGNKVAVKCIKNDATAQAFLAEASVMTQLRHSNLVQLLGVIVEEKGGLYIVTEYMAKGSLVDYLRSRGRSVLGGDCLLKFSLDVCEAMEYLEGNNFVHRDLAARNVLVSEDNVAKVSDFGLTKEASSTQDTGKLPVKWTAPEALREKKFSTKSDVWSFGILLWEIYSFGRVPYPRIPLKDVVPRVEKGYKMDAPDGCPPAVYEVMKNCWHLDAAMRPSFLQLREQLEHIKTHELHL
row,Compound,inhibition at 1 µM [%]
1,O=c1cc(N2CCOCC2)nc2n(Cc3cccc(Cl)c3Cl)c(C3CC3)nn12 [UNC10225469A],8
2,Cn1cc(-c2cnc(N)c3c(-c4ccc5c(c4)CCN5C(=O)Cc4ccccc4)csc23)cn1 [UNC10225012A],20
3,CS(=O)(=O)Cc1ccc(Nc2nccc(-c3c(-c4cccc(NC(=O)C5CCCCC5)c4)nn4ncccc34)n2)cc1 [UNC10225159A],10
4,COc1cccc(OC)c1C(=O)Nc1cccc(-c2nn3ccccc3c2-c2ccnc(Nc3cccc(F)c3)n2)c1 [UNC10225310A],18
5,Cc1ccc(NC(=O)Nc2cccc(C(F)(F)F)c2)cc1 [UNC10225187A],28

# Target: ALK (Homo sapiens, UniProt Q9UM73)
# Assay: KINOMEscan competition binding
# Conditions: read-out: %Inh ALK
row,Compound,inhibition at 1 µM [%]
1,O=c1cc(N2CCOCC2)nc2n(Cc3cccc(Cl)c3Cl)c(C3CC3)nn12 [UNC10225469A],0
2,Cn1cc(-c2cnc(N)c3c(-c4ccc5c(c4)CCN5C(=O)Cc4ccccc4)csc23)cn1 [UNC10225012A],0
3,CS(=O)(=O)Cc1ccc(Nc2nccc(-c3c(-c4cccc(NC(=O)C5CCCCC5)c4)nn4ncccc34)n2)cc1 [UNC10225159A],29
4,COc1cccc(OC)c1C(=O)Nc1cccc(-c2nn3ccccc3c2-c2ccnc(Nc3cccc(F)c3)n2)c1 [UNC10225310A],0
5,Cc1ccc(NC(=O)Nc2cccc(C(F)(F)F)c2)cc1 [UNC10225187A],0

# Target: LRRK2 (Homo sapiens, UniProt Q5S007)
# Assay: KINOMEscan competition binding
# Conditions: read-out: %Inh LRRK2
# Chain of LRRK2 (Q5S007 whole entry): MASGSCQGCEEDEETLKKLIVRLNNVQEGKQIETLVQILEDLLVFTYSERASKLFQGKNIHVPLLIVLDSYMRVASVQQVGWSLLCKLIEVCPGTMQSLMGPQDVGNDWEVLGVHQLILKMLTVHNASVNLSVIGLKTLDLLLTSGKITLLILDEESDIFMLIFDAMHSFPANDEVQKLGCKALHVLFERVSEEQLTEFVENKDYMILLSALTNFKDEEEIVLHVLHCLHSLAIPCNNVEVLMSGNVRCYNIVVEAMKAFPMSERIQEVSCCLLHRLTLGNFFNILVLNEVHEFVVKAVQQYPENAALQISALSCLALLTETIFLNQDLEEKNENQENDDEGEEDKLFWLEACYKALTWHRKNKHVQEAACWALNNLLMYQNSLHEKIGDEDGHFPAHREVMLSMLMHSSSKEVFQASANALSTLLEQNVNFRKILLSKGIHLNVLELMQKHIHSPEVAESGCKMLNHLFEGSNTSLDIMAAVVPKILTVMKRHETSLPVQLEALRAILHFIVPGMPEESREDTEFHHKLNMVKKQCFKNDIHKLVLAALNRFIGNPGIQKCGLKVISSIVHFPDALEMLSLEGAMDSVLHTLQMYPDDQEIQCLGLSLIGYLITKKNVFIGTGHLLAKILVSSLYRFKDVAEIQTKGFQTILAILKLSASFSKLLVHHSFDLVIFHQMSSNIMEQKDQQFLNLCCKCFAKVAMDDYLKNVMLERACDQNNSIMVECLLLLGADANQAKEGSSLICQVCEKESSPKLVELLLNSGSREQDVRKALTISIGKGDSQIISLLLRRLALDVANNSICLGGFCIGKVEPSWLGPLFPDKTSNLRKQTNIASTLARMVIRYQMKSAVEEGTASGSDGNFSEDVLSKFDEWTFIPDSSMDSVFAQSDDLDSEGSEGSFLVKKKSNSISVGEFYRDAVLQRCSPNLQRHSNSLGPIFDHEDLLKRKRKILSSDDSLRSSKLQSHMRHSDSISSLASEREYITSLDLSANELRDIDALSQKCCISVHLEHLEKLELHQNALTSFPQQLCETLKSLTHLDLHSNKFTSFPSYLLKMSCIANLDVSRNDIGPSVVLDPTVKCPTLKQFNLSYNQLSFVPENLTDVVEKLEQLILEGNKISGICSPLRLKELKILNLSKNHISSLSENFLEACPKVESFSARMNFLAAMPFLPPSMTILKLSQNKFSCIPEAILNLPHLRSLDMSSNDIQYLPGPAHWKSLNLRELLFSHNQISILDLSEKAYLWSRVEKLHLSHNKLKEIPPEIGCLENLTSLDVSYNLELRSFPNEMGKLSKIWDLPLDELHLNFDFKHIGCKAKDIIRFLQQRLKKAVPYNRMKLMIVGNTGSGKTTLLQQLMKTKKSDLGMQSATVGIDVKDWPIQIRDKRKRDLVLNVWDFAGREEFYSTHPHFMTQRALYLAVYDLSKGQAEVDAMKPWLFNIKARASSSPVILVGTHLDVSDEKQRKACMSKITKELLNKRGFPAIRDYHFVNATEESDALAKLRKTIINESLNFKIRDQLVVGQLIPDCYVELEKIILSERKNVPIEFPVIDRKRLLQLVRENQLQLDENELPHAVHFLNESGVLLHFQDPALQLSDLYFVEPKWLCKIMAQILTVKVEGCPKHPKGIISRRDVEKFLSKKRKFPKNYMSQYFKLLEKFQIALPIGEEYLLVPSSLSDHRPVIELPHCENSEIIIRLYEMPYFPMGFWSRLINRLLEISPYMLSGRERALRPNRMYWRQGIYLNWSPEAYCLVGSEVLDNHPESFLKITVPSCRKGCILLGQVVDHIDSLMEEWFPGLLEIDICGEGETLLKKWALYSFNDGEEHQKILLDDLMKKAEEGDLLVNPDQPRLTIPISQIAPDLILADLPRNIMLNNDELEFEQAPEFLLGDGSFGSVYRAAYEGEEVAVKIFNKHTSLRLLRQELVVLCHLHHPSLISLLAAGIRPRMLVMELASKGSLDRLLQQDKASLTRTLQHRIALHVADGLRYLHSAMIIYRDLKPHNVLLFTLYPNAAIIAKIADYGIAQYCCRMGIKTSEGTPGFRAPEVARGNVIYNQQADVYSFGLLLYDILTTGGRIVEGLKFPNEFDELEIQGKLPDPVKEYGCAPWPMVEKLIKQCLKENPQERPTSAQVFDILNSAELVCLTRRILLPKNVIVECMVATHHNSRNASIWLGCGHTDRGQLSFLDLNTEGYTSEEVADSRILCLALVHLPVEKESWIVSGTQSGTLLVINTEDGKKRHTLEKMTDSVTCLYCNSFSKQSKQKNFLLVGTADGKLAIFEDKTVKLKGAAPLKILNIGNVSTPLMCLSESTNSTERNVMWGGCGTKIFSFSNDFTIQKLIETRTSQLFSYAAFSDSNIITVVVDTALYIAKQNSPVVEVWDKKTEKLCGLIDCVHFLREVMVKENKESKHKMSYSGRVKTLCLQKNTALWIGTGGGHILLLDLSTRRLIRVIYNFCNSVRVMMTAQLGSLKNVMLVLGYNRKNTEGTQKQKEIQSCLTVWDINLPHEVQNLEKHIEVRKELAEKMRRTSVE
row,Compound,inhibition at 1 µM [%]
1,O=c1cc(N2CCOCC2)nc2n(Cc3cccc(Cl)c3Cl)c(C3CC3)nn12 [UNC10225469A],0
2,Cn1cc(-c2cnc(N)c3c(-c4ccc5c(c4)CCN5C(=O)Cc4ccccc4)csc23)cn1 [UNC10225012A],3
3,CS(=O)(=O)Cc1ccc(Nc2nccc(-c3c(-c4cccc(NC(=O)C5CCCCC5)c4)nn4ncccc34)n2)cc1 [UNC10225159A],20
4,COc1cccc(OC)c1C(=O)Nc1cccc(-c2nn3ccccc3c2-c2ccnc(Nc3cccc(F)c3)n2)c1 [UNC10225310A],0
5,Cc1ccc(NC(=O)Nc2cccc(C(F)(F)F)c2)cc1 [UNC10225187A],0

# Target: T1, CDKL2 (Homo sapiens, UniProt Q92772)
# T1 sequence (Q92772 1-493): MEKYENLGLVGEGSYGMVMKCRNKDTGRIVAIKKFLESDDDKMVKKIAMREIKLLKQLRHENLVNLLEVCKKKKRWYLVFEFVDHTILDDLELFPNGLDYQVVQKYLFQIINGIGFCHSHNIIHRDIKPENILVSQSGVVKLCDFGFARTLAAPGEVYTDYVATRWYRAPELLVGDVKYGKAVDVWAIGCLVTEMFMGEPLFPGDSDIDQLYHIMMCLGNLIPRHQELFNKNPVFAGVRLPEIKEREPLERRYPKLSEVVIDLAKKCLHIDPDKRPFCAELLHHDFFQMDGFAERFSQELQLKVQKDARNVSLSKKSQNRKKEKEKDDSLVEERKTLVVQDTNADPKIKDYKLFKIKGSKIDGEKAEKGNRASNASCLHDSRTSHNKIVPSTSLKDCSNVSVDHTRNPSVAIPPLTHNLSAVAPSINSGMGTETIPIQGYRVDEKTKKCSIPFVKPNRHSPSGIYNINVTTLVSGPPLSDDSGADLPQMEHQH
# Assay: KINOMEscan competition binding
# Conditions: read-out: %Inh CDKL2
row,Compound,inhibition at 1 µM [%]
1,O=c1cc(N2CCOCC2)nc2n(Cc3cccc(Cl)c3Cl)c(C3CC3)nn12 [UNC10225469A],0
2,Cn1cc(-c2cnc(N)c3c(-c4ccc5c(c4)CCN5C(=O)Cc4ccccc4)csc23)cn1 [UNC10225012A],0
3,CS(=O)(=O)Cc1ccc(Nc2nccc(-c3c(-c4cccc(NC(=O)C5CCCCC5)c4)nn4ncccc34)n2)cc1 [UNC10225159A],5
4,COc1cccc(OC)c1C(=O)Nc1cccc(-c2nn3ccccc3c2-c2ccnc(Nc3cccc(F)c3)n2)c1 [UNC10225310A],6
5,Cc1ccc(NC(=O)Nc2cccc(C(F)(F)F)c2)cc1 [UNC10225187A],0

# Target: T2, DCAMKL3 (Homo sapiens, UniProt Q9C098)
# T2 sequence (Q9C098 1-648): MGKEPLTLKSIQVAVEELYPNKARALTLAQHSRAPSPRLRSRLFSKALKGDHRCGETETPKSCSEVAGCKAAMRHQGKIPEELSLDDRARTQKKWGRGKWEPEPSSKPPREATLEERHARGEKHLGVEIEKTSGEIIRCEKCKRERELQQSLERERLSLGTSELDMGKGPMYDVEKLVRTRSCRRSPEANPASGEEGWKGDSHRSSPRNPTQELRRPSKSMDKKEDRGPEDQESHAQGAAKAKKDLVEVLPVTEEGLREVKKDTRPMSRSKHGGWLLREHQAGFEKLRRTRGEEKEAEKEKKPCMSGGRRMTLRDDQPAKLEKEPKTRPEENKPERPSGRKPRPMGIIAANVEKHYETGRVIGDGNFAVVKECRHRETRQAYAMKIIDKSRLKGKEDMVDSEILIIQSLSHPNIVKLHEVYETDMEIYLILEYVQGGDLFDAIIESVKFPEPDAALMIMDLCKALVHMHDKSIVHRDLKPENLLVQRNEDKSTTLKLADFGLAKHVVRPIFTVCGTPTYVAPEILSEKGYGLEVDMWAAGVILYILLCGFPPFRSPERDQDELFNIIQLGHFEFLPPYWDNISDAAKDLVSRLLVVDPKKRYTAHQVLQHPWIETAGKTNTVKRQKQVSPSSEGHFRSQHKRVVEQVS
# Assay: KINOMEscan competition binding
# Conditions: read-out: %Inh DCAMKL3
row,Compound,inhibition at 1 µM [%]
1,O=c1cc(N2CCOCC2)nc2n(Cc3cccc(Cl)c3Cl)c(C3CC3)nn12 [UNC10225469A],17
2,Cn1cc(-c2cnc(N)c3c(-c4ccc5c(c4)CCN5C(=O)Cc4ccccc4)csc23)cn1 [UNC10225012A],5
3,CS(=O)(=O)Cc1ccc(Nc2nccc(-c3c(-c4cccc(NC(=O)C5CCCCC5)c4)nn4ncccc34)n2)cc1 [UNC10225159A],0
4,COc1cccc(OC)c1C(=O)Nc1cccc(-c2nn3ccccc3c2-c2ccnc(Nc3cccc(F)c3)n2)c1 [UNC10225310A],16
5,Cc1ccc(NC(=O)Nc2cccc(C(F)(F)F)c2)cc1 [UNC10225187A],13

# Target: ACVR2B (Homo sapiens, UniProt Q13705)
# Assay: KINOMEscan competition binding
# Conditions: read-out: %Inh ACVR2B
# Chain of ACVR2B (Q13705 19-512): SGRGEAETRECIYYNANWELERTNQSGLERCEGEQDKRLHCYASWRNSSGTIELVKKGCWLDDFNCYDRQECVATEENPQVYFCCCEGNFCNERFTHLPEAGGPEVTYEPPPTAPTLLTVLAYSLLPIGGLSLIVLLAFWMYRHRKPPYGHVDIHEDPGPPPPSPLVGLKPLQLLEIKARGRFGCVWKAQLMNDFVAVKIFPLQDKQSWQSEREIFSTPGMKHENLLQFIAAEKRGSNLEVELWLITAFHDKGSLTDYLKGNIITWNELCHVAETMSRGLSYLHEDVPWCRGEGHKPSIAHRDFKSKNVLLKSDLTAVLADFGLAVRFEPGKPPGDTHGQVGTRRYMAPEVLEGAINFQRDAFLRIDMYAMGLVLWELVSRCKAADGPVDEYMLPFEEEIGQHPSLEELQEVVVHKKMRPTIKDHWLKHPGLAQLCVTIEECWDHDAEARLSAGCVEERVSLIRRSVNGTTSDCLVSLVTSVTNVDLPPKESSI
row,Compound,inhibition at 1 µM [%]
1,O=c1cc(N2CCOCC2)nc2n(Cc3cccc(Cl)c3Cl)c(C3CC3)nn12 [UNC10225469A],0
2,Cn1cc(-c2cnc(N)c3c(-c4ccc5c(c4)CCN5C(=O)Cc4ccccc4)csc23)cn1 [UNC10225012A],0
3,CS(=O)(=O)Cc1ccc(Nc2nccc(-c3c(-c4cccc(NC(=O)C5CCCCC5)c4)nn4ncccc34)n2)cc1 [UNC10225159A],0
4,COc1cccc(OC)c1C(=O)Nc1cccc(-c2nn3ccccc3c2-c2ccnc(Nc3cccc(F)c3)n2)c1 [UNC10225310A],27
5,Cc1ccc(NC(=O)Nc2cccc(C(F)(F)F)c2)cc1 [UNC10225187A],0

# Target: GSK3B (Homo sapiens, UniProt P49841)
# Assay: KINOMEscan competition binding
# Conditions: read-out: %Inh GSK3B
# Chain of GSK3B (P49841 whole entry): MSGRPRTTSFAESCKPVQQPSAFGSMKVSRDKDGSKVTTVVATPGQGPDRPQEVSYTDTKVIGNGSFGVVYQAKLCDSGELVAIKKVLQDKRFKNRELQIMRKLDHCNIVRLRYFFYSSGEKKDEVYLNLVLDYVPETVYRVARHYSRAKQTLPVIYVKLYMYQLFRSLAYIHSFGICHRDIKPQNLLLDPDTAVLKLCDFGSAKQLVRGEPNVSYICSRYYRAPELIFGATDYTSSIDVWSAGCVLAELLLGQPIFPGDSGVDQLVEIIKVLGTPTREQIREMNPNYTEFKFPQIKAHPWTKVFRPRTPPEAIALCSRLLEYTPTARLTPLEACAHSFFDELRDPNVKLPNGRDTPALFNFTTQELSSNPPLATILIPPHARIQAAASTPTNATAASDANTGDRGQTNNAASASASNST
row,Compound,inhibition at 1 µM [%]
1,O=c1cc(N2CCOCC2)nc2n(Cc3cccc(Cl)c3Cl)c(C3CC3)nn12 [UNC10225469A],0
2,Cn1cc(-c2cnc(N)c3c(-c4ccc5c(c4)CCN5C(=O)Cc4ccccc4)csc23)cn1 [UNC10225012A],0
3,CS(=O)(=O)Cc1ccc(Nc2nccc(-c3c(-c4cccc(NC(=O)C5CCCCC5)c4)nn4ncccc34)n2)cc1 [UNC10225159A],20
4,COc1cccc(OC)c1C(=O)Nc1cccc(-c2nn3ccccc3c2-c2ccnc(Nc3cccc(F)c3)n2)c1 [UNC10225310A],0
5,Cc1ccc(NC(=O)Nc2cccc(C(F)(F)F)c2)cc1 [UNC10225187A],0

# Target: CSNK1G2 (Homo sapiens, UniProt P78368)
# Assay: KINOMEscan competition binding
# Conditions: read-out: %Inh CSNK1G2
row,Compound,inhibition at 1 µM [%]
1,O=c1cc(N2CCOCC2)nc2n(Cc3cccc(Cl)c3Cl)c(C3CC3)nn12 [UNC10225469A],5
2,Cn1cc(-c2cnc(N)c3c(-c4ccc5c(c4)CCN5C(=O)Cc4ccccc4)csc23)cn1 [UNC10225012A],7
3,CS(=O)(=O)Cc1ccc(Nc2nccc(-c3c(-c4cccc(NC(=O)C5CCCCC5)c4)nn4ncccc34)n2)cc1 [UNC10225159A],5
4,COc1cccc(OC)c1C(=O)Nc1cccc(-c2nn3ccccc3c2-c2ccnc(Nc3cccc(F)c3)n2)c1 [UNC10225310A],17
5,Cc1ccc(NC(=O)Nc2cccc(C(F)(F)F)c2)cc1 [UNC10225187A],1

# Target: KIT (Homo sapiens, UniProt P10721)
# Assay: KINOMEscan competition binding
# Conditions: read-out: %Inh KIT
row,Compound,inhibition at 1 µM [%]
1,O=c1cc(N2CCOCC2)nc2n(Cc3cccc(Cl)c3Cl)c(C3CC3)nn12 [UNC10225469A],0
2,Cn1cc(-c2cnc(N)c3c(-c4ccc5c(c4)CCN5C(=O)Cc4ccccc4)csc23)cn1 [UNC10225012A],100
3,CS(=O)(=O)Cc1ccc(Nc2nccc(-c3c(-c4cccc(NC(=O)C5CCCCC5)c4)nn4ncccc34)n2)cc1 [UNC10225159A],88
4,COc1cccc(OC)c1C(=O)Nc1cccc(-c2nn3ccccc3c2-c2ccnc(Nc3cccc(F)c3)n2)c1 [UNC10225310A],90.9
5,Cc1ccc(NC(=O)Nc2cccc(C(F)(F)F)c2)cc1 [UNC10225187A],91.4

# Target: LCK (Homo sapiens, UniProt P06239)
# Assay: KINOMEscan competition binding
# Conditions: read-out: %Inh LCK
# Chain of LCK (P06239 whole entry): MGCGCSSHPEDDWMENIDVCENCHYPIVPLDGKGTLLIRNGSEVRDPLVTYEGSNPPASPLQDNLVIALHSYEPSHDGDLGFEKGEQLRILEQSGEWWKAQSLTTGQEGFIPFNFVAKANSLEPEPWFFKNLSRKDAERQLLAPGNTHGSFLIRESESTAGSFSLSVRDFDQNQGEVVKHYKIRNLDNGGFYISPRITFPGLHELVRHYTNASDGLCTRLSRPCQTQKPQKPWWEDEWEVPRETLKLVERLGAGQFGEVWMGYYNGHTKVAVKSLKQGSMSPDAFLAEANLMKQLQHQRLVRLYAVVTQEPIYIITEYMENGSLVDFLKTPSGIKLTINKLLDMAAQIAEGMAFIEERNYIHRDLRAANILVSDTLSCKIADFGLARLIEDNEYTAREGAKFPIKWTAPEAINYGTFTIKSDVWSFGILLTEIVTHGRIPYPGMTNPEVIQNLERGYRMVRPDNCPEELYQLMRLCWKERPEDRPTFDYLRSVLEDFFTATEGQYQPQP
row,Compound,inhibition at 1 µM [%]
1,O=c1cc(N2CCOCC2)nc2n(Cc3cccc(Cl)c3Cl)c(C3CC3)nn12 [UNC10225469A],23
2,Cn1cc(-c2cnc(N)c3c(-c4ccc5c(c4)CCN5C(=O)Cc4ccccc4)csc23)cn1 [UNC10225012A],93.8
3,CS(=O)(=O)Cc1ccc(Nc2nccc(-c3c(-c4cccc(NC(=O)C5CCCCC5)c4)nn4ncccc34)n2)cc1 [UNC10225159A],23
4,COc1cccc(OC)c1C(=O)Nc1cccc(-c2nn3ccccc3c2-c2ccnc(Nc3cccc(F)c3)n2)c1 [UNC10225310A],24
5,Cc1ccc(NC(=O)Nc2cccc(C(F)(F)F)c2)cc1 [UNC10225187A],6

# Target: T3, MAK (Homo sapiens, UniProt P20794)
# T3 sequence (P20794 1-623): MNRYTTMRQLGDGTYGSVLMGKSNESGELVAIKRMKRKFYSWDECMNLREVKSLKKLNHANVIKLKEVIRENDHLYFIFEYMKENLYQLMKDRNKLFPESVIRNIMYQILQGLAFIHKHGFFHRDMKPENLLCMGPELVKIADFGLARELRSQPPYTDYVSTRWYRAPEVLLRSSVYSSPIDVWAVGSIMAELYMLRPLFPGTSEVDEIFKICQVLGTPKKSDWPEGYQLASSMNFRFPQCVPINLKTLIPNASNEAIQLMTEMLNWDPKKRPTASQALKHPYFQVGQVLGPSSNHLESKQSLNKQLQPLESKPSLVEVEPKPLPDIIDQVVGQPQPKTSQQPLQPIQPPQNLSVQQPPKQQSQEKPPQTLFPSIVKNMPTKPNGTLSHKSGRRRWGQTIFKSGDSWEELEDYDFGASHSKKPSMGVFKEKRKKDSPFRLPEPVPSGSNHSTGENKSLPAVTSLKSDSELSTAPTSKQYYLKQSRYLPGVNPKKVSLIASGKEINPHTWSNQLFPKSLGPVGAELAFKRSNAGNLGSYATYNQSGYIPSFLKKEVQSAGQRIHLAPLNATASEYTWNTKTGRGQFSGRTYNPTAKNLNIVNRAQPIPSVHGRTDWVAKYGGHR
# Assay: KINOMEscan competition binding
# Conditions: read-out: %Inh MAK
row,Compound,inhibition at 1 µM [%]
1,O=c1cc(N2CCOCC2)nc2n(Cc3cccc(Cl)c3Cl)c(C3CC3)nn12 [UNC10225469A],0
2,Cn1cc(-c2cnc(N)c3c(-c4ccc5c(c4)CCN5C(=O)Cc4ccccc4)csc23)cn1 [UNC10225012A],0
3,CS(=O)(=O)Cc1ccc(Nc2nccc(-c3c(-c4cccc(NC(=O)C5CCCCC5)c4)nn4ncccc34)n2)cc1 [UNC10225159A],0
4,COc1cccc(OC)c1C(=O)Nc1cccc(-c2nn3ccccc3c2-c2ccnc(Nc3cccc(F)c3)n2)c1 [UNC10225310A],14
5,Cc1ccc(NC(=O)Nc2cccc(C(F)(F)F)c2)cc1 [UNC10225187A],0
